In brackets after ≈: the same amount, converted by molar mass. Non-standard residues stand in square brackets, D forms with d. Residues, ends and D or L forms follow the SMILES beside them. Gly(N-2-aminoethyl) = NCCNCC(=O)O; Nspe = C[C@H](NCC(=O)O)c1ccccc1; Nphe = O=C(O)CNCc1ccccc1; Nlys = NCCCCNCC(=O)O
What was measured:
[1] = Average hydrophobicity by analytical reverse-phase HPLC retention; assay type: physicochemical; details: for RP-HPLC Retention (% MeCN): Supplement table 4 (chemical and physical data for peptoid library), % MeCN at elution in RP-HPLC; for RP-HPLC Retention: Table S3, representative analytical RP-HPLC traces, SB-Analytical ODH-S column 100 x 1.6 mm, 3.5 µm, 0-100% solvent B over 30 min at 220 nm, A = 95% H2O, 0.05% TFA, B = 95% MeCN, 0.03% TFA
Description: (§1) To examine the average hydrophobicity of the peptoids, the retention time for from reverse‐phase HPLC was determined on a C18 column using acetonitrile and water, with 0.1% TFA (see Figure 3A). To find log D values, partitioning experiments were carried out, as illustrated by Figure 2. A peptoid solution (between 10 and 100 µM) in PBS was added to an equal volume of octanol and the system allowed to equilibrate under gentle agitation for ∼150 h (as 48 h was not found to be sufficient for the system to reach equilibrium). At this point it is assumed that the peptoid has partitioned between these two phases, such as to minimise its free energy.
Preparative RP‐HPLC was performed with a semi‐preparative Perkin Elmer Series 200 lc pump fitted with a 785A UV/Vis detector using a SB‐Analytical ODH‐S optimal column (250 mm × 10 mm, 5 µm); flow rate 2 mL min^−1; λ = 250 nm, typical linear gradient elution 0–50% of solvent B over 60 min (A = 0.1% TFA in 95% H2O and 5% MeCN, B = 0.1% TFA in 5% H2O and 95% MeCN). Analytical RP‐HPLC was performed with a Perkin Elmer Series 200 LC pump fitted with a Series 200 UV/Vis detector using a SB‐Analytical ODH‐S optimal column (100 mm × 1.6 mm, 3.5 µm); flow rate 1 mL min^−1; λ = 220 nm, linear gradient elution 0–100% of solvent B over 30 min (A = 0.05% TFA, 95% H2O, 5% MeCN, B = 0.03% TFA, 5% H2O, 95% MeCN).
Preparative RP-HPLC was performed with a semi-preparative Perkin Elmer Series 200 lc pump fitted with a 785A UV/Vis detector using a SB-Analytical ODH-S optimal column (250 × 10 mm, 5 µm); flow rate 2 ml min^−1; λ = 250 nm, typical linear gradient elution 0-50% of solvent B over 60 min (A = 0.1% TFA in 95% H2O and 5% MeCN, B = 0.1% TFA in 5% H2O and 95% MeCN). Analytical RP-HPLC was performed with a Perkin Elmer Series 200 LC pump fitted with a Series 200 UV/Vis detector using a SB-Analytical ODH-S optimal column (100 × 1.6 mm, 3.5 µm); flow rate 1 ml min^−1; λ = 220 nm, linear gradient elution 0-100% of solvent B over 30 min (A = 0.05% TFA, 95% H2O, 5% MeCN, B = 0.03% TFA, 5% H2O, 95% MeCN).
Table S3. Data from analytical RP-HPLC for representative compounds of this peptoid library. Analytical HPLC gradient: 0 – 100% solvent B over 30 min at 220 nm (where solvent A = 95% H2O, 5% MeCN, 0.05 % TFA; solvent B = 95% MeCN, 5% H2O, 0.03% TFA).

[2] = test system: E. coli; assay type: cell-based; details: 16 h
Description: (§2) Bacterial cultures were prepared by streaking the bacterial strain from a 4°C- or frozen stock culture to single colonies onto agar plates (containing the appropriate antibiotic for strains carrying antibiotic resistance plasmids) with an inoculation loop, followed by overnight incubation at 37 °C.
(§3) Primary overnight (o/n) cultures were prepared by inoculating a single colony from a streak plate into 5 mL of LB broth in a screw-capped culture tube, that was placed on a tube rotator at 37 °C (or 30 °C for sensitive strains) for overnight incubation. Before the usage of stock cultures the strains genotype were checked. Primary stocks were stored at 4°C for up to 6 weeks and always replaced from fresh colonies.
(§4) Fresh cultures used for experiments contained 0.1-0.5 mL o/n culture diluted into 8 mL of fresh medium in a standard test tube. Placed in a shaking water bath or on a tube rotator the bacteria were grown at the required temperature to the required cell density. Frozen stock cultures used for long term storage that can remain viable for 10 years were prepared by mixing 2.5 mL fresh o/n culture with 1.5 mL sterile 80% glycerol in a 5 mL sterile blood tube and stored at -20 °C.
(§5) MIC values were attained according to the previously described protocol4 and were conducted in 96-well plates (Costar, Fisher Scientific). Using the pre-prepared cultures, an innoculum density of 0.07 at 650 nm was set by comparing the absorbance with 0.5 MacFarland standard (240 μM BaCl2 in 0.18 M H2SO4). The innoculum was then diluted down ten-fold with Iso-sensitest broth (Oxoid, ThermoScientific) before use. Peptoids were initially dissolved in DMSO (5 mM) and then diluted further with Iso-sensitest broth to achieve a concentration range of 4 – 200 µM using 1 : 2 serial dilutions. 50 μl of innoculum and 50 μL of peptoid solution were added to each test well (final concentration range of 2 – 100 µM). Positive control containing only innoculum and Iso-sensitest broth; negative control containing inoculum and serial dilutions of ampicillin (from 250 microgram/mL to 2 microgram per mL); DMSO control containing innoculum and serial dilutions of DMSO; and Iso-sensitest broth were used as a sterile control. […] Quantitative data was attained from absorbance values using a microplate reader.

[3] = test system: S. aureus; assay type: cell-based; details: 16 h
Description: as §2, §3, §4, §5

[4] = log D by partitioning experiment in octanol and PBS; assay type: physicochemical; details: pH 7.4
Description: as §1
A combination of UV spectrometry and dynamic light scattering were used to determine that no aggregation was taking place in either phase (see Supporting Information). The peptoid concentrations of both phases were then determined using UV–Vis spectroscopy and the logarithm of the ratio of […] (log D) was calculated (Figure 3B). […]
Partition experiments were carried out by putting 450 µL of octanol in contact with 450 µL of PBS, which contained between […] of peptoid. Each peptoid was measured in triplicate. […] The concentration of peptoid remaining in the PBS and the octanol was measured individually using the phenylalanine peak as before. […]

| Compound | RP-HPLC Retention (% MeCN) [1] [% MeCN] | further results |
| --- | --- | --- |
| C[C@@H](c1ccccc1)N(CC(N)=O)C(=O)CN(C(=O)CN(CCN)C(=O)CN(C(=O)CN(C(=O)CNCCN)[C@@H](C)c1ccccc1)[C@@H](C)c1ccccc1)[C@@H](C)c1ccccc1 [Peptoid 12] | 33 |  |
| C[C@@H](c1ccccc1)N(CC(N)=O)C(=O)CN(C(=O)CN(CCCCN)C(=O)CN(C(=O)CN(C(=O)CN(CCCCN)C(=O)CN(C(=O)CN(C(=O)CNCCCCN)[C@@H](C)c1ccccc1)[C@@H](C)c1ccccc1)[C@@H](C)c1ccccc1)[C@@H](C)c1ccccc1)[C@@H](C)c1ccccc1 [Peptoid 5] (H-[Nlys][Nspe][Nspe][Nlys][Nspe][Nspe][Nlys][Nspe][Nspe]-NH2) | 37 | RP-HPLC Retention ([1]; 5% MeCN, 5% H2O): 15.3 min |
| C[C@@H](c1ccccc1)N(CC(N)=O)C(=O)CN(C(=O)CN(CCCCN)C(=O)CN(C(=O)CN(C(=O)CNCCCCN)[C@@H](C)c1ccccc1)[C@@H](C)c1ccccc1)[C@@H](C)c1ccccc1 [Peptoid 6] (H-[Nlys][Nspe][Nspe][Nlys][Nspe][Nspe]-NH2) | 33 | RP-HPLC Retention ([1]; 5% MeCN, 5% H2O): 14.4 min |
| NCCNCC(=O)N(CC(=O)N(CC(=O)N(CCN)CC(=O)N(CC(=O)N(CC(=O)N(CCN)CC(=O)N(CC(=O)N(CC(N)=O)Cc1ccccc1)Cc1ccccc1)Cc1ccccc1)Cc1ccccc1)Cc1ccccc1)Cc1ccccc1 [Peptoid 8] (H-[Gly(N-2-aminoethyl)][Nphe][Nphe][Gly(N-2-aminoethyl)][Nphe][Nphe][Gly(N-2-aminoethyl)][Nphe][Nphe]-NH2) | 34 |  |
| NCCCCNCC(=O)N(CC(=O)N(CC(=O)N(CCCCN)CC(=O)N(CC(=O)N(CC(=O)N(CCCCN)CC(=O)N(CC(=O)N(CC(=O)N(CCCCN)CC(=O)N(CC(=O)N(CC(N)=O)Cc1ccccc1)Cc1ccccc1)Cc1ccccc1)Cc1ccccc1)Cc1ccccc1)Cc1ccccc1)Cc1ccccc1)Cc1ccccc1 [Peptoid 1] (H-[Nlys][Nphe][Nphe][Nlys][Nphe][Nphe][Nlys][Nphe][Nphe][Nlys][Nphe][Nphe]-NH2) | 37 |  |
| NCCCCNCC(=O)N(CC(=O)N(CC(=O)N(CCCCN)CC(=O)N(CC(=O)N(CC(=O)N(CCCCN)CC(=O)N(CC(=O)N(CC(N)=O)Cc1ccccc1)Cc1ccccc1)Cc1ccccc1)Cc1ccccc1)Cc1ccccc1)Cc1ccccc1 [Peptoid 2] | 34 |  |
| NCCNCC(=O)N(CC(=O)N(CC(=O)N(CCN)CC(=O)N(CC(=O)N(CC(N)=O)Cc1ccccc1)Cc1ccccc1)Cc1ccccc1)Cc1ccccc1 [Peptoid 9] (H-[Gly(N-2-aminoethyl)][Nphe][Nphe][Gly(N-2-aminoethyl)][Nphe][Nphe]-NH2) | 30 |  |
| C[C@@H](c1ccccc1)N(CC(N)=O)C(=O)CN(C(=O)CN(CCN)C(=O)CN(C(=O)CN(C(=O)CN(CCN)C(=O)CN(C(=O)CN(C(=O)CN(CCN)C(=O)CN(C(=O)CN(C(=O)CNCCN)[C@@H](C)c1ccccc1)[C@@H](C)c1ccccc1)[C@@H](C)c1ccccc1)[C@@H](C)c1ccccc1)[C@@H](C)c1ccccc1)[C@@H](C)c1ccccc1)[C@@H](C)c1ccccc1 [Peptoid 10] (H-[Gly(N-2-aminoethyl)][Nspe][Nspe][Gly(N-2-aminoethyl)][Nspe][Nspe][Gly(N-2-aminoethyl)][Nspe][Nspe][Gly(N-2-aminoethyl)][Nspe][Nspe]-NH2) | 41 | HPLC RT ([1]; Table 2 / main text, chromatographic, RP-HPLC C18 retention time as measure of average hydrophobicity, gradient 0-100% solvent B over 30 min, 220 nm, 1 mL/min, A = 0.05% TFA, 95% H2O, 5% MeCN, B = 0.03% TFA, 5% H2O, 95% MeCN, around pH 2.2): 16.7 min; MIC E. coli [2]: >100 µM; MIC S. aureus [3]: 2 µM (≈ 3.41 µg/mL) |
| NCCNCC(=O)N(CC(=O)N(CC(=O)N(CCN)CC(=O)N(CC(=O)N(CC(=O)N(CCN)CC(=O)N(CC(=O)N(CC(=O)N(CCN)CC(=O)N(CC(=O)N(CC(N)=O)Cc1ccccc1)Cc1ccccc1)Cc1ccccc1)Cc1ccccc1)Cc1ccccc1)Cc1ccccc1)Cc1ccccc1)Cc1ccccc1 [Peptoid 7] (H-[Gly(N-2-aminoethyl)][Nphe][Nphe][Gly(N-2-aminoethyl)][Nphe][Nphe][Gly(N-2-aminoethyl)][Nphe][Nphe][Gly(N-2-aminoethyl)][Nphe][Nphe]-NH2) | 37 | RP-HPLC Retention ([1]; 5% MeCN, 5% H2O): 15.2 min |
| C[C@@H](c1ccccc1)N(CC(N)=O)C(=O)CN(C(=O)CN(CCN)C(=O)CN(C(=O)CN(C(=O)CN(CCN)C(=O)CN(C(=O)CN(C(=O)CNCCN)[C@@H](C)c1ccccc1)[C@@H](C)c1ccccc1)[C@@H](C)c1ccccc1)[C@@H](C)c1ccccc1)[C@@H](C)c1ccccc1 [Peptoid 11] (H-[Gly(N-2-aminoethyl)][Nspe][Nspe][Gly(N-2-aminoethyl)][Nspe][Nspe][Gly(N-2-aminoethyl)][Nspe][Nspe]-NH2) | 39 | log D [4]: negative |
| NCCCCNCC(=O)N(CC(=O)N(CC(=O)N(CCCCN)CC(=O)N(CC(=O)N(CC(N)=O)Cc1ccccc1)Cc1ccccc1)Cc1ccccc1)Cc1ccccc1 [Peptoid 3] (H-[Nlys][Nphe][Nphe][Nlys][Nphe][Nphe]-NH2) | 31 |  |

Reference: paper PMC5519928, “Log D versus HPLC derived hydrophobicity: The development of predictive tools to aid in the rational design of bioactive peptoids” (Biopolymers, 2017)
